Assay results published in ChEMBL document CHEMBL4414613, “Antibacterial 5α-Spirostane Saponins from the Fruit of Cordyline manners-suttoniae” (J Nat Prod, 2019).
In brackets after ≈: the same amount, converted by molar mass. Activity calls are given as the source filed them. The rule behind the calls is not given here.

How the values were obtained:
[1] = system: Enterococcus faecium; assay: Bactericidal activity against Enterococcus faecium ATCC 35667 incubated for 24 hrs by microdilution assay; format: functional; details: ATCC 35667, 24 h
[2] = system: Pseudomonas aeruginosa; assay: Antibacterial activity against Pseudomonas aeruginosa ATCC 49189 at 90 uM incubated for 24 hrs by microdilution assay; format: functional, organism-based
[3] = system: Acinetobacter baumannii; assay: Antibacterial activity against Acinetobacter baumannii ATCC 17978 at 90 uM incubated for 24 hrs by microdilution assay; format: functional, organism-based
[4] = Selectivity ratio of IC50 for human HaCaT cells to IC50 for human HDF cells by CellTiter 96 aqueous one solution assay
[5] = system: Pseudomonas aeruginosa; assay: Bactericidal activity against Pseudomonas aeruginosa ATCC 49189 at 90 uM incubated for 24 hrs by microdilution assay; format: functional, organism-based
[6] = system: Staphylococcus aureus; assay: Antibacterial activity against Staphylococcus aureus ATCC 29247 incubated for 24 hrs by microdilution assay; format: functional
[7] = system: Pseudomonas aeruginosa; assay: Bactericidal activity against Pseudomonas aeruginosa ATCC 10145 at 90 uM incubated for 24 hrs by microdilution assay; format: functional, organism-based
[8] = system: Enterococcus faecium; assay: Antibacterial activity against Enterococcus faecium C15 incubated for 24 hrs by microdilution assay; format: functional
[9] = system: HaCaT; assay: Cytotoxicity against human HaCaT cells assessed as reduction in cell viability incubated for 4 days by CellTiter 96 aqueous one solution assay; format: cell-based; details: 96 h
[10] = system: Enterobacter cloacae subsp. cloacae; assay: Bactericidal activity against Enterobacter cloacae ATCC 13047 at 90 uM incubated for 24 hrs by microdilution assay; format: functional
[11] = system: Acinetobacter baumannii; assay: Antibacterial activity against Acinetobacter baumannii ATCC 19606 at 90 uM incubated for 24 hrs by microdilution assay; format: functional, organism-based; details: ATCC 19606 = CIP 70.34 = JCM 6841
[12] = system: Enterococcus faecium; assay: Antibacterial activity against Enterococcus faecium ATCC 35667 incubated for 24 hrs by microdilution assay; format: functional
[13] = system: Klebsiella pneumoniae; assay: Bactericidal activity against Klebsiella pneumoniae ATCC 12657 at 90 uM incubated for 24 hrs by microdilution assay; format: functional, organism-based
[14] = system: Klebsiella aerogenes; assay: Antibacterial activity against Enterobacter aerogenes ATCC 13048 at 90 uM incubated for 24 hrs by microdilution assay; format: functional
[15] = system: Staphylococcus aureus; assay: Bactericidal activity against Staphylococcus aureus ATCC 25923 incubated for 24 hrs by microdilution assay; format: functional; details: ATCC 25923, 24 h
[16] = system: Klebsiella pneumoniae; assay: Bactericidal activity against Klebsiella pneumoniae ATCC 13883 at 90 uM incubated for 24 hrs by microdilution assay; format: functional, organism-based
[17] = system: Klebsiella pneumoniae; assay: Antibacterial activity against Klebsiella pneumoniae ATCC 12657 at 90 uM incubated for 24 hrs by microdilution assay; format: functional, organism-based
[18] = system: Enterobacter cloacae subsp. cloacae; assay: Antibacterial activity against Enterobacter cloacae ATCC 13047 at 90 uM incubated for 24 hrs by microdilution assay; format: functional
[19] = system: Enterococcus faecium; assay: Bactericidal activity against Enterococcus faecium C15 incubated for 24 hrs by microdilution assay; format: functional; details: C15, 24 h
[20] = system: Klebsiella pneumoniae; assay: Antibacterial activity against Klebsiella pneumoniae ATCC 13883 at 90 uM incubated for 24 hrs by microdilution assay; format: functional, organism-based
[21] = system: Pseudomonas aeruginosa; assay: Antibacterial activity against Pseudomonas aeruginosa ATCC 10145 at 90 uM incubated for 24 hrs by microdilution assay; format: functional, organism-based
[22] = system: Klebsiella aerogenes; assay: Bactericidal activity against Enterobacter aerogenes ATCC 13048 at 90 uM incubated for 24 hrs by microdilution assay; format: functional
[23] = system: Acinetobacter baumannii; assay: Bactericidal activity against Acinetobacter baumannii ATCC 19606 at 90 uM incubated for 24 hrs by microdilution assay; format: functional, organism-based; details: ATCC 19606 = CIP 70.34 = JCM 6841
[24] = system: NHDF; assay: Cytotoxicity against human HDF cells assessed as reduction in cell viability incubated for 7 days by CellTiter 96 aqueous one solution assay; format: functional, cell-based; details: 168 h
[25] = system: Acinetobacter baumannii; assay: Bactericidal activity against Acinetobacter baumannii ATCC 17978 at 90 uM incubated for 24 hrs by microdilution assay; format: functional, organism-based
[26] = system: Staphylococcus aureus; assay: Bactericidal activity against Staphylococcus aureus ATCC 29247 incubated for 24 hrs by microdilution assay; format: functional; details: ATCC 29247, 24 h
[27] = system: Staphylococcus aureus; assay: Antibacterial activity against Staphylococcus aureus ATCC 25923 incubated for 24 hrs by microdilution assay; format: functional
[28] = system: Enterococcus faecium; assay: Bactericidal activity against Enterococcus faecium ATCC 35667 up to 86.8 uM incubated for 24 hrs by microdilution assay; format: functional, organism-based
[29] = system: Staphylococcus aureus; assay: Bactericidal activity against Staphylococcus aureus ATCC 25923 up to 86.8 uM incubated for 24 hrs by microdilution assay; format: functional, organism-based
[30] = system: Staphylococcus aureus; assay: Bactericidal activity against Staphylococcus aureus ATCC 25923 at 90 uM incubated for 24 hrs by microdilution assay; format: functional, organism-based
[31] = system: Enterococcus faecium; assay: Bactericidal activity against Enterococcus faecium C15 up to 86.8 uM incubated for 24 hrs by microdilution assay; format: functional, organism-based
[32] = system: Enterococcus faecium; assay: Bactericidal activity against Enterococcus faecium C15 at 90 uM incubated for 24 hrs by microdilution assay; format: functional, organism-based
[33] = system: Staphylococcus aureus; assay: Bactericidal activity against Staphylococcus aureus ATCC 29247 at 90 uM incubated for 24 hrs by microdilution assay; format: functional, organism-based
[34] = system: Enterococcus faecium; assay: Bactericidal activity against Enterococcus faecium ATCC 35667 at 90 uM incubated for 24 hrs by microdilution assay; format: functional, organism-based
[35] = system: Staphylococcus aureus; assay: Bactericidal activity against Staphylococcus aureus ATCC 29247 up to 86.8 uM incubated for 24 hrs by microdilution assay; format: functional, organism-based

Compound | Activity [2] | Activity [3] | Ratio IC50 [4] | Activity [5] | MIC75 [6] [µM] | Activity [7] | MIC75 [8] [µM] | IC50 [9] [µM] | Activity [10] | Activity [11] | MIC75 [12] [µM] | Activity [13] | Activity [14] | Activity [16] | Activity [17] | Activity [18] | Activity [20] | Activity [21] | Activity [22] | Activity [23] | also measured
C[C@@H]1CC[C@]2(OC1)O[C@H]1C[C@H]3[C@@H]4CC[C@H]5C[C@@H](O)C[C@@H](O[C@@H]6O[C@H](C)[C@H](O)[C@H](O)[C@H]6O)[C@]5(C)[C@H]4CC[C@]3(C)[C@H]1[C@@H]2C | inactive | inactive | 3 - 11 | inactive | 21.6 (≈ 12.5 µg/mL) | inactive | 21.6 (≈ 12.5 µg/mL) | 18.2 | inactive | inactive | 21.6 (≈ 12.5 µg/mL) | inactive | inactive | inactive | inactive | inactive | inactive | inactive | inactive | inactive | MBC [1]: 43.2 µM (≈ 25 µg/mL); MBC [15]: 21.6 µM (≈ 12.5 µg/mL); MBC [19]: 43.2 µM (≈ 25 µg/mL); IC50 [24]: 4.3 µM; Activity [25]: inactive; MBC [26]: 21.6 µM (≈ 12.5 µg/mL); MIC75 [27]: 21.6 µM (≈ 12.5 µg/mL)
C=C1CC[C@]2(OC1)O[C@H]1C[C@H]3[C@@H]4CC[C@H]5C[C@@H](O)C[C@@H](O[C@@H]6O[C@H](C)[C@H](O)[C@H](O)[C@H]6O)[C@]5(C)[C@H]4CC[C@]3(C)[C@H]1[C@@H]2C | inactive | inactive | 3 - 11 | inactive | 5.4 (≈ 3.11 µg/mL) | inactive | 21.7 (≈ 12.5 µg/mL) | 23.9 | inactive | inactive | 21.7 (≈ 12.5 µg/mL) | inactive | inactive | inactive | inactive | inactive | inactive | inactive | inactive | inactive | Activity [28]: inactive; Activity [29]: inactive; Activity [30]: inactive; Activity [31]: inactive; Activity [32]: inactive; Activity [33]: inactive; Activity [34]: inactive; Activity [35]: inactive; IC50 [24]: 4.2 µM; Activity [25]: inactive; MIC75 [27]: 5.4 µM (≈ 3.11 µg/mL)
